Assay results as given in patent US7015306B2 (BioSynthema, Inc., priority 1999, dated 2006).
Where a SMILES comes first, the peptide text is derived from it. [ ]: non-standard residue; d: D form. The star is where a group is joined. ξ: configuration not given here. DTPA = O=C(O)CN(CCN(CC(=O)O)CC(=O)O)CCN(CC(=O)O)CC(=O)*; Phe(4-guanidino) = N=C(N)Nc1ccc(C[C@H](N)C(=O)O)cc1; ξGly(4-Pip(1-amidino)) = N=C(N)N1CCC(C(N)C(=O)O)CC1; ξGly(piperidin-4-yl) = NC(C(=O)O)C1CCNCC1; tBuAla = CC(C)(C)C[C@H](N)C(=O)O; Cha = N[C@@H](CC1CCCCC1)C(=O)O; Tle = CC(C)(C)[C@H](N)C(=O)O; Aba(Apy) = not defined here; Aze = O=C(O)[C@@H]1CCN1

Experiments:
[1] = molecular target: neurotensin receptors (Homo sapiens, UniProt P30989); test: Competitive binding assay on frozen tissue sections of receptor-positive human tumors vs radioiodinated native neurotensin; details: Table 3
Sequence of neurotensin receptors (P30989 whole entry): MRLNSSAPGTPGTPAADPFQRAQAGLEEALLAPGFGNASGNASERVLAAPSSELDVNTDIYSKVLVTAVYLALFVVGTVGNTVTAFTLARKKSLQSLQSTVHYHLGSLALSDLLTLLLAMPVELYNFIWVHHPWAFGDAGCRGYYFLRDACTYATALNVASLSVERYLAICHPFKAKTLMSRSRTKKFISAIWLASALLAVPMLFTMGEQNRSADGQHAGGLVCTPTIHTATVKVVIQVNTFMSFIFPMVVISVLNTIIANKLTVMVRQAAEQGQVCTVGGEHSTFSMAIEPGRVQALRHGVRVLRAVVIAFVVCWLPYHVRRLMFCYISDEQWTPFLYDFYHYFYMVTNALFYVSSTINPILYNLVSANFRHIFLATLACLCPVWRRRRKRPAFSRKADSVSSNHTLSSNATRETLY
Description: Frozen tissue sections from receptor-positive human tumors were used in a competitive binding assay.

[2] = In vitro urine stability assay (HPLC) of In-111 labeled peptide; assay type: in vitro ADME; details: for remaining at 4 h: rat, t = 4 h
Protocol: (§1) All reagents were purchased from Sigma unless otherwise noted. The peptide and ^111InCl3 in 0.05 N HCl were incubated in a sodium acetate/ascorbic acid buffer for 30 minutes at room temperature. The reaction was diluted with 5% ethanol/95% PBS before using in subsequent in vitro assays.
(§2) Human serum was purchased from Sigma (H 1388). The labeled peptide was incubated in either human serum or rat urine at 37EC for the specified amount of time. An aliquot was filtered through a 0.45 μm syringe filter prior to HPLC injection.

[3] = In vitro serum stability assay (HPLC) of In-111 labeled peptide; assay type: in vitro ADME, human; details: for remaining at 4 h: t = 4 h
Protocol: as §1, §2

[4] = Table 4, rat urine, read-out: Urine Stability, Urine (t = 4 h)

Compound | Kd [1] [nM] | % of peptide at 4 hours after incubation at 37EC, Urine ([2]; rat urine, 37EC) [%] | % of peptide at 4 hours after incubation at 37EC, Serum ([3]; human serum, 37EC) [%] | further results
CC(C)C[C@H](NC(=O)[C@@H](NC(=O)[C@H](Cc1ccc(O)cc1)NC(=O)[C@@H]1CCCN1C(=O)[C@H](CCCNC(=N)N)NC(=O)C(NC(=O)[C@@H]1CCCN1C(=O)C(NC(=O)CN(CCN(CCN(CC(=O)O)CC(=O)O)CC(=O)O)CC(=O)O)C1CCNCC1)C1CCN(C(=N)N)CC1)C(C)(C)C)C(=O)O (stereo partly drawn) [Compound XI, DTPA-PipGly-Pro-Gly(PipAm)-Arg-Pro-Tyr-tBuGly-Leu-OH] ({DTPA}-[ξGly(piperidin-4-yl)]P[ξGly(4-Pip(1-amidino))]RPY[Tle]L-OH) | 3.9 | 93.6 | 95.9 | –
CC(C)C[C@H](NC(=O)[C@@H](NC(=O)[C@H](Cc1ccc(O)cc1)NC(=O)[C@@H]1CCCN1C(=O)[C@H](CCCNC(=N)N)NC(=O)C(NC(=O)[C@@H]1CCCN1C(=O)[C@H](CCCCN)NC(=O)[C@H](CC(N)=O)NC(=O)[C@H](CCC(=O)O)NC(=O)[C@@H](Cc1ccc(O)cc1)NC(=O)CN(CCN(CCN(CC(=O)O)CC(=O)O)CC(=O)O)CC(=O)O)C1CCN(C(=N)N)CC1)C(C)(C)C)C(=O)O (stereo partly drawn) [Compound XIII, DTPA-DTyr-Glu-Asn-Lys-Pro-Gly(PipAm)-Arg-Pro-Tyr-tBuGly-Leu-OH] ({DTPA}-[dY]ENKP[ξGly(4-Pip(1-amidino))]RPY[Tle]L-OH) | 4.5 | 86.8 | 94.9 | –
CC(C)(C)[C@H](NC(=O)[C@H](Cc1ccc(O)cc1)NC(=O)[C@@H]1CCCN1C(=O)[C@H](CCCNC(=N)N)NC(=O)C(NC(=O)[C@@H]1CCCN1C(=O)[C@H](CCCCN)NC(=O)[C@H](CC(N)=O)NC(=O)[C@H](CCC(=O)O)NC(=O)[C@@H](Cc1ccc(O)cc1)NC(=O)CN(CCN(CCN(CC(=O)O)CC(=O)O)CC(=O)O)CC(=O)O)C1CCN(C(=N)N)CC1)C(=O)N[C@@H](CC1CCCCC1)C(=O)O (stereo partly drawn) [Compound XIV, DTPA-DTyr-Glu-Asn-Lys-Pro-Gly(PipAm)-Arg-Pro-Tyr-tBuGly-Cha-OH] ({DTPA}-[dY]ENKP[ξGly(4-Pip(1-amidino))]RPY[Tle][Cha]-OH) | 4.5 | 81.8 | 93.9 | –
CC(C)(C)C[C@H](NC(=O)[C@@H](NC(=O)[C@H](Cc1ccc(O)cc1)NC(=O)[C@@H]1CCCN1C(=O)[C@H](CCCNC(=N)N)NC(=O)C(NC(=O)[C@@H]1CCCN1C(=O)[C@H](CCCCN)NC(=O)[C@H](CC(N)=O)NC(=O)[C@H](CCC(=O)O)NC(=O)[C@@H](Cc1ccc(O)cc1)NC(=O)CN(CCN(CCN(CC(=O)O)CC(=O)O)CC(=O)O)CC(=O)O)C1CCN(C(=N)N)CC1)C(C)(C)C)C(=O)O (stereo partly drawn) [Compound XV, DTPA-DTyr-Glu-Asn-Lys-Pro-Gly(PipAm)-Arg-Pro-Tyr-tBuGly-tBuAla-OH] ({DTPA}-[dY]ENKP[ξGly(4-Pip(1-amidino))]RPY[Tle][tBuAla]-OH) | 3.5 | 89.8 | 98.9 | –
CC(C)C[C@H](NC(=O)[C@@H](NC(=O)[C@H](Cc1ccc(O)cc1)NC(=O)[C@@H]1CCCN1C(=O)[C@H](CCCNC(=N)N)NC(=O)C(NC(=O)[C@@H]1CCN1C(=O)[C@@H](CCCCN)NC(=O)CN(CCN(CCN(CC(=O)O)CC(=O)O)CC(=O)O)CC(=O)O)C1CCN(C(=N)N)CC1)C(C)(C)C)C(=O)O (stereo partly drawn) [DTPA-DLys-AzeCA-Gly(PipAm)-Arg-Pro-Tyr-tBuGly-Leu-OH] ({DTPA}-[dK][Aze][ξGly(4-Pip(1-amidino))]RPY[Tle]L-OH) | 24 | 49.8 | 79.5 | –
CC(C)C[C@H](NC(=O)[C@@H](NC(=O)[C@H](Cc1ccc(O)cc1)NC(=O)[C@@H]1CCCN1C(=O)[C@H](CCCN=C(N)N)NC(=O)[C@H](Cc1ccc(NC(=N)N)cc1)NC(=O)[C@@H]1CCCN1C(=O)[C@@H](CCCCN)NC(=O)CN(CCN(CCN(CC(=O)O)CC(=O)O)CC(=O)O)CC(=O)O)C(C)(C)C)C(=O)O [In-111-DTPA-DK-P-F(Gu)-R-P-Y-tBuG-L, metal not drawn] ({DTPA}-[dK]P[Phe(4-guanidino)]RPY[Tle]L-OH) | – | – | – | remaining at 4 h [2, 4]: 51.1%; remaining at 4 h ([3]; Table 4, human serum, read-out: Serum Stability, Serum (t = 4 h)): 72%
CC[C@H](C)[C@H](NC(=O)[C@H](Cc1ccc(O)cc1)NC(=O)[C@@H]1CCCN1C(=O)[C@H](CCCNC(=N)N)NC(=O)[C@H](CCCNC(=N)N)NC(=O)CN(CCN(CCN(CC(=O)O)CC(=O)O)CC(=O)O)CC(=O)O)C(=O)N[C@@H](CC(C)C)C(=O)O [In-111-DTPA-R-R-P-Y-I-L, metal not drawn, reference compound] | – | – | – | HPLC Evaluation of Urine Stability at 37EC, Urine, t = 0 ([2]; rat urine, t = 0): 96.7%; remaining at 4 h ([2]; 37EC, read-out: HPLC Evaluation of Urine Stability at 37EC, Urine, t = 4 h): 13%; remaining at 4 h [2, 4]: 14%; remaining at 4 h ([3]; human serum, 37EC, read-out: HPLC Evaluation of Serum Stability at 37EC, Serum, t = 4 h): 1.6%; HPLC Evaluation of Serum Stability at 37EC, Serum, t = 0 ([3]; human serum, t = 0): 92%
DTPA-DLys-Pro-Aba(Apy)-Aba(Apy)-Pro-Tyr-Ile-Leu-OH ({DTPA-dK-Pro-Aba(Apy)-Aba(Apy)}-PYIL-OH; reading uncertain) | > 10000 | – | – | –
